Test results from patent US10752615B2, “Spirocyclic containing compounds and pharmaceutical uses thereof” (GB005, Inc., priority 2016, dated 2020).

Columns and labels:
[1] = test system: PBMC stimulated with anti-CD3 and anti-CD28 antibodies; experiment: CD3/CD28 mediated PBMC proliferation assay; settings: Homo sapiens, 72 h, read-out: CD3/CD28 PMBC proliferation IC50 (nM)
Description: Individual wells of 96 well tissue culture plates were coated with 50 μL of 5 μg/mL anti-CD3 (OKT3, eBiosciences) overnight at 4° C. Human blood was collected in EDTA containing vacutainer tubes. […] The cells were placed in a humidified 37° C. incubator for 72 hours. Controls included unstimulated cells and media alone.

[2] = molecular target: BTK (Homo sapiens (Human), UniProt Q06187); experiment: Kinase inhibition assay (Nanosyn, microfluidic detection), BTK; assay type: biochemical; settings: 1 mM ATP, 3 hours at 25° C.
[3] = test system: experimental autoimmune encephalomyelitis (EAE); experiment: Experimental autoimmune encephalomyelitis (EAE) model of multiple sclerosis; assay type: in vivo, female C57BL/6 mice; settings: oral gavage once daily, 30 mg/kg
Description: TEC kinases play important roles in immune cells and pathogenic microglia in multiple sclerosis. The efficacy of compound 16 was evaluated in experimental autoimmune encephalomyelitis (EAE), a mouse model of multiple sclerosis. […] A group of ten naïve C57BL/6 mice was maintained as a negative control. […] Mouse is not alert. 5.0—Death or severe paralysis resulting in euthanasia.

[4] = molecular target: TXK (Homo sapiens (Human), UniProt P42681); experiment: Kinase inhibition assay (Nanosyn, microfluidic detection), TXK; assay type: biochemical; settings: 1 mM ATP, 3 hours at 25° C.
TXK, sequence (P42681 whole entry): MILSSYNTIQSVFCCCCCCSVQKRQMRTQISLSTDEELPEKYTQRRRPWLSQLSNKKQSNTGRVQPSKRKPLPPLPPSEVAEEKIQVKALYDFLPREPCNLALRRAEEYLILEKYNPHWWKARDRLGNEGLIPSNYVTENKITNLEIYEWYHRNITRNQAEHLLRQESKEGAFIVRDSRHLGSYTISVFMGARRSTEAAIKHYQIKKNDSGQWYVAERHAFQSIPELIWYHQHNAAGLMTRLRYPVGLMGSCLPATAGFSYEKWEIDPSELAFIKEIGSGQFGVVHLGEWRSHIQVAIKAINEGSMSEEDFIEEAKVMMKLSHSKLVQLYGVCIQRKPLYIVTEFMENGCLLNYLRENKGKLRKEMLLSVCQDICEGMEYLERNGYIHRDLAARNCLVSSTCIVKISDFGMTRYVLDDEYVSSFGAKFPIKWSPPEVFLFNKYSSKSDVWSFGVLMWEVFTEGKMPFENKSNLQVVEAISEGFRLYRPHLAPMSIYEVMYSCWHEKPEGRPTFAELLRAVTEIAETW

BTK, sequence (Q06187 whole entry): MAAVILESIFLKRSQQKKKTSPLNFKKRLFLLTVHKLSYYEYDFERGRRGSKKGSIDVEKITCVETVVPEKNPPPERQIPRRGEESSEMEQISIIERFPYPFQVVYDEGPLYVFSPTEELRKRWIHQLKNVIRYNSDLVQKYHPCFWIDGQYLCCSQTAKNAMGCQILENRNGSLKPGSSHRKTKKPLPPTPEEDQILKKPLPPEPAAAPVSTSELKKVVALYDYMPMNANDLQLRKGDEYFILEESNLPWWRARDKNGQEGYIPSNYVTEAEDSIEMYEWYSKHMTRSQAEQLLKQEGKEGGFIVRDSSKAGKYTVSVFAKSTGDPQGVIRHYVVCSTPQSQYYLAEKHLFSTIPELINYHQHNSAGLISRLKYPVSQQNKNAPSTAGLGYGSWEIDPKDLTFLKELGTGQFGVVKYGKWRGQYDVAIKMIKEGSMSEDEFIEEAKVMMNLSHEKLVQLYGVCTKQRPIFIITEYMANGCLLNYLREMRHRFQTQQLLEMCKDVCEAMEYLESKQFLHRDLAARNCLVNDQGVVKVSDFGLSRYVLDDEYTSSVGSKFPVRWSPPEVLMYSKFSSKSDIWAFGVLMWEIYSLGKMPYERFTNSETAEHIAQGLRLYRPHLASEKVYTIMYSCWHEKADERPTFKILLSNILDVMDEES

SMILES | IC50 [1] [nM] | IC50 [2] [nM] | disease severity (EAE score) ([3]; in PEG 400, treated after onset of symptoms, mice) | symptoms of neurological deficit ([3]; versus vehicle treated animals that rapidly progressed) | IC50 [4] [nM]
C=CC(=O)N1CC[C@]2(C1)C[C@@H](n1c(NC(=O)c3cnc(C(C)C)s3)nc3cc(CN[C@@H](C)C(C)(C)C)ccc31)C2 [Compound 11] | > 300 |  |  |  | 
C=CC(=O)N1CC[C@]2(C1)C[C@H](n1c(NC(=O)c3ccno3)nc3ccccc31)C2 [Compound 45] | 60.3 |  |  |  | 
C=CC(=O)N1CC[C@]2(C1)C[C@H](n1c(NC(=O)c3ccc(-c4cnco4)s3)nc3ccccc31)C2 [Compound 16] |  | 0.94 | greatly attenuated | minimal symptoms | 
C=CC(=O)N1CC[C@]2(C1)C[C@H](n1c(NC(=O)c3cc4c(s3)CCCC4)nc3ccccc31)C2 [Compound 80] | > 300 |  |  |  | 
C=CC(=O)N1CC[C@]2(C1)C[C@H](n1c(NC(=O)c3cc4ccccc4s3)nc3ccccc31)C2 [Compound 81] | > 300 |  |  |  | 
C=CC(=O)N1CCC2(CC1)CC(n1c(NC(=O)c3ccc(C(F)F)s3)nc3cc(CN[C@@H](C)C(C)(C)C)ccc31)C2 [Compound 12] | > 300 |  |  |  | 
C=CC(=O)N1CC[C@]2(C1)C[C@@H](n1c(NC(=O)c3ccc(-c4cnco4)s3)nc3c(Cl)cccc31)C2 [Compound 72] | > 300 |  |  |  | 
C=CC(=O)N1CC[C@]2(C1)C[C@H](n1c(NC(=O)c3ccc(C(=O)O)s3)nc3ccccc31)C2 [Compound 100] | > 300 |  |  |  | 
C=CC(=O)N1CC[C@]2(C1)C[C@H](n1c(NC(=O)c3ccc(-c4ccnc(OC)c4)s3)nc3ccccc31)C2 [Compound 96] |  | 1.55 |  |  | 0.35
C=CC(=O)N1CC[C@]2(C1)C[C@H](n1c(NC(=O)c3ccc(-c4ccc(C)nc4)s3)nc3ccccc31)C2 [Compound 143] |  | 7.92 |  |  | 9.08
C=CC(=O)N1CC[C@]2(C1)C[C@H](n1c(NC(=O)c3ccc(NC(=O)C4CCOCC4)s3)nc3ccccc31)C2 [Compound 112] | > 300 |  |  |  | 
C=CC(=O)N1CC[C@]2(C1)C[C@@H](n1c(NC(=O)c3ccc(-c4cnco4)s3)nc3c(OC)cccc31)C2 [Compound 88] | > 300 |  |  |  | 
C=CC(=O)N1CC[C@]2(C1)C[C@H](n1c(NC(=O)c3ccc(-n4cccn4)s3)nc3ccccc31)C2 [Compound 89] |  | 23.7 |  |  | 3.17
C=CC(=O)N1CC[C@]2(C1)C[C@H](n1c(NC(=O)c3ccc(-c4cnco4)s3)nc3cc(CN[C@H]4C[C@H](O)C4)ccc31)C2 [Compound 43] |  | 0.53 |  |  | 0.32
C=CC(=O)N1CC[C@]2(C1)C[C@H](n1c(NC(=O)c3ccnn3C)nc3cc(CN[C@@H](C)C(C)(C)C)ccc31)C2 [Compound 14] |  | 23.4 |  |  | 3.9
C=CC(=O)N1CC[C@]2(C1)C[C@H](n1c(NC(=O)c3ccc(-c4ccc(F)nc4)s3)nc3ccccc31)C2 [Compound 126] |  | 9.21 |  |  | 0.8
C=CC(=O)N1CC[C@]2(C1)C[C@H](n1c(NC(=O)c3cnco3)nc3cc(CN[C@@H](C)C(C)(C)C)ccc31)C2 [Compound 6] |  | 4.28 |  |  | 2.86
C=CC(=O)N1CC[C@]2(C1)C[C@H](n1c(NC(=O)c3ccc(OC)nc3)nc3cc(CN[C@@H](C)C(C)(C)C)ccc31)C2 [Compound 32] |  | 5.45 |  |  | 0.7
C=CC(=O)N1CC[C@]2(C1)C[C@H](n1c(NC(=O)c3ccc(-c4cnco4)s3)nc3cccc(F)c31)C2 [Compound 56] |  | 1.56 |  |  | 0.26
C=CC(=O)N1CC[C@]2(C1)C[C@H](n1c(NC(=O)c3ccc(-c4ccnnc4)s3)nc3ccccc31)C2 [Compound 114] |  | 3.31 |  |  | 0.22

SMILES | IC50 [1] [nM] | IC50 [2] [nM] | disease severity (EAE score) ([3]; in PEG 400, treated after onset of symptoms, mice) | symptoms of neurological deficit ([3]; versus vehicle treated animals that rapidly progressed) | IC50 [4] [nM]
C=CC(=O)N1CC[C@]2(C1)C[C@H](n1c(NC(=O)c3cccs3)nc3ccccc31)C2 [Compound 82] |  | 33.2 |  |  | 3.33
C=CC(=O)N1CC[C@]2(C1)C[C@H](n1c(NC(=O)c3ccc(C#N)cc3)nc3ccccc31)C2 [Compound 48] |  | 4.37 |  |  | 1.16
C=CC(=O)N1CC[C@]2(C1)C[C@H](n1c(NC(=O)c3ccno3)nc3cc(CN[C@@H](C)C(C)(C)C)ccc31)C2 [Compound 21] |  | 1.54 |  |  | 1.22
C=CC(=O)N1CC[C@]2(C1)C[C@H](n1c(NC(=O)c3ccc(C(F)F)s3)nc3cc(CN[C@H]4C[C@H](O)C4)ccc31)C2 [Compound 36] |  | 1.14 |  |  | 0.63
C=CC(=O)N1CC[C@]2(C1)C[C@H](n1c(NC(=O)c3ccc(-c4ccc(CO)nc4)s3)nc3ccccc31)C2 [Compound 144] |  | 3.45 |  |  | 1.51
C=CC(=O)N1CC2(CC(n3c(NC(=O)c4ccc(C(F)F)s4)nc4cc(CN[C@@H](C)C(C)(C)C)ccc43)C2)C1 [Compound 1] |  | 378 |  |  | 52.6
C=CC(=O)N1CC[C@]2(C1)C[C@H](n1c(NC(=O)c3ccc(-c4cnco4)s3)nc3ccc(CN4CCOCC4)cc31)C2 [Compound 77] |  | 0.78 |  |  | 0.37
C=CC(=O)N1CC[C@]2(C1)C[C@H](n1c(NC(=O)c3ccc(C(F)F)s3)nc3ccccc31)C2 [Compound 15] |  | 4.4 |  |  | 0.55
C=CC(=O)N1CC[C@]2(C1)C[C@H](n1c(NC(=O)c3cccc(-c4cnco4)c3)nc3ccccc31)C2 [Compound 49] |  | 13.7 |  |  | 1.39
C=CC(=O)N1CC[C@]2(C1)C[C@H](n1c(NC(=O)c3ccc(NC(=O)CC)s3)nc3ccccc31)C2 [Compound 105] |  | 112 |  |  | 23.2
C=CC(=O)N1CC[C@]2(C1)C[C@H](n1c(NC(=O)c3ccc(-c4cccnn4)s3)nc3ccccc31)C2 [Compound 76] |  | 22.6 |  |  | 2.8
C=CC(=O)N1CC[C@]2(C1)C[C@H](n1c(NC(=O)c3cccc(-c4cnco4)c3)nc3cc(CN[C@@H](C)C(C)(C)C)ccc31)C2 [Compound 38] |  | 4.08 |  |  | 0.67
C#Cc1ccc(C(=O)Nc2nc3cc(CN[C@@H](C)C(C)(C)C)ccc3n2[C@H]2C[C@@]3(CCN(C(=O)C=C)C3)C2)s1 [Compound 28] |  | 1.7 |  |  | 0.63
C=CC(=O)N1CC[C@]2(C1)C[C@H](n1c(NC(=O)c3ccc(-c4cnco4)cc3)nc3cc(CN[C@@H](C)C(C)(C)C)ccc31)C2 [Compound 39] |  | 5.67 |  |  | 0.97
C=CC(=O)N1CC[C@]2(C1)C[C@H](n1c(NC(=O)c3ccc(-c4ccc(OC)nc4)s3)nc3ccccc31)C2 [Compound 95] |  | 19.4 |  |  | 9.12
C=CC(=O)N1CC[C@]2(C1)C[C@H](n1c(NC(=O)c3ccc(-c4cnco4)s3)nc3cc(N(C)C(=O)C4CCCCC4)ccc31)C2 [Compound 60] |  | 1.15 |  |  | 0.4
C=CC(=O)N1CC[C@]2(C1)C[C@H](n1c(NC(=O)c3ccc(-c4cc(N)ncn4)s3)nc3ccccc31)C2 [Compound 141] |  | 1.83 |  |  | 0.29
C=CC(=O)N1CC[C@]2(C1)C[C@H](n1c(NC(=O)c3ccc(-c4nnc(C)o4)s3)nc3ccccc31)C2 [Compound 94] |  | 1.38 |  |  | 0.82
C=CC(=O)N1CC[C@]2(C1)C[C@H](n1c(NC(=O)c3ccc(-c4cnccn4)s3)nc3ccccc31)C2 [Compound 132] |  | 10.3 |  |  | 1.99
